Earlier results in paper PMC10377753, “Pharmacokinetic and pharmacodynamic properties of polymyxin B in Escherichia coli and Klebsiella pneumoniae murine infection models” (Journal of Antimicrobial Chemotherapy, 2023).

Test system: plasma proteins
Details: mouse, spiked pooled plasma, ultracentrifugation; cited from earlier work
Description: Protein binding of polymyxin B is known to be high. However, a difference was found between the current study (unbound fraction 20%) compared with previous studies (8.6% for polymyxin B,[8] 8.4% for colistin[5]), which affects the PTA. In the present study, ultrafiltration was used for determining the unbound fraction, whilst ultracentrifugation was used in the other studies. With the ultrafiltration method, correction for the NSB to the ultrafiltration membranes was needed. In addition, differences in mouse plasma used for determination of polymyxin B protein binding may (partly) explain the ...

colistin
Unbound fraction: 8.4%
